The subject of data set [1] is SGC-7901 (human gastric cancer cell line). Briefly: MTT in vitro cytotoxicity assay, SGC-7901. In kind it is cell-based. As to conditions: for IC50: mean ± S.D.; for inhibition at 100 µM: SGC-7901, at 100 µM, read-out: Cell growth inhibition (%) SGC-7901. The method, then:
(§1) The lead molecules A2 and all newly prepared diarylamine derivatives B1-13 and C1-11 were evaluated for their in vitro cytotoxic effects against SGC-7901, A875, HepG2 and MARC145 cell lines by the classical MTT [3-(4,5-dimethylthiazol-2-yl)-2,5-diphenyl tetrazolium bromide] assay ([Alley et al., 1988]; [Ke et al., 2012]; [Shi et al., 2012]; [Yu et al., 2015]; [Ke et al., 2019]; [Xu et al., 2019]; [Huang et al., 2021]) using 5-FU (5-Fluorouracil) as a control.
(§2) The cytotoxicity of target compounds was determined with MTT assay ([Alley et al., 1988]; [Ke et al., 2012]; [Shi et al., 2012]; [Yu et al., 2015]; [Ke et al., 2019]; [Xu et al., 2019]; [Huang et al., 2021]). SGC-7901, A875, HepG2 and MARC145 cell lines were obtained from Hubei Biopesticide Engineering Research Centre. All data of the experiment were analyzed with SPSS software, and all assay were performed in triplicate on three independent experiments, and measurement data were expressed as the mean ± S.D.
(§3) The in vitro cytotoxicity of the synthesized compounds against different cell lines (SGC-7901, A875, HepG2 and MARC145) was measured with MTT assay. All the data of the experiment were analyzed with SPSS software, and the 50% inhibitory concentrations (IC50) of each compound for the different cell lines were determined. A control was run for each test, and all assays were performed in triplicate on three independent experiments, and measurement data were expressed as the mean ± S.D.

The subject of data set [2] is A875 (human melanoma cell line). Briefly: MTT in vitro cytotoxicity assay, A875. As to conditions: for IC50: mean ± S.D.; for inhibition at 100 µM: A875, at 100 µM, read-out: Cell growth inhibition (%) A875. In kind it is cell-based. Here is the method: as §1, §2, §3
Data set [3] concerns HepG2 (human hepatocellular liver carcinoma cell line). Briefly: MTT in vitro cytotoxicity assay, HepG2. The data set is classed as cell-based. As to conditions: for IC50: mean ± S.D.; for inhibition at 100 µM: HepG2, at 100 µM, read-out: Cell growth inhibition (%) HepG2. The method, then:
as §1, §2, §3

Data set [4] in a line: MTT in vitro cytotoxicity assay, MARC145. In kind it is cell-based, African green monkey. Conditions: African green monkey, MARC145 cells (kidney cell line, subclone of MA-104), MTT, mean ± S.D. Here is the method:
as §1, §2, §3

Data set [5] has as its system MARC145 (subclone of African green monkey kidney cell line MA-104). Briefly: MTT in vitro cytotoxicity assay, MARC145. In kind it is cell-based. Conditions: Chlorocebus sabaeus, MARC145; at 100 µM; read-out: Cell growth inhibition (%) MARC145. Here is the method:
as §1, §2, §3

Data set [6] deals with SGC-7901, A875, HepG2 and MARC145 cell lines. Briefly: MTT in vitro cytotoxicity assay, statements over the whole cell panel. In kind it is cell-based. Conditions: for cytotoxic effect / inhibition activity in words: IC50-based judgement, compared with 5-FU; for inhibition activity in preliminary screening, in words: at 100 µM, inhibition rate higher than control 5-FU. Here is the method:
as §1, §2, §3

In a further data set the test system is A875 cells. Briefly: LDH release (cellular necrosis). The data set is classed as cell-based, human. Conditions: 24 h after treatment. Here is the method: From the preliminary analysis of apoptosis, the results encourage us to further investigate the type of cell death induced by the potential compounds (C6 and C11). As we know, the release of LDH is a typical characteristic feature of necrotic cell death, and so which was detected.
A875 cells grown in 96-well plates were treated with serial dilutions of each tested compound for 24 h. The culture media were collected, and the concentrations of LDH were determined based on our previous research ([Huang et al., 2021]).
A875 cells grown in 96-well plates were treated with serial dilutions of each tested compound for 24 h. The culture media were collected, and the concentrations of LDH were determined with an LDH assay kit according to the manufacturer’s instructions (Abcam).

The next data set deals with NCI-H460. Details: method as in Peng et al., 2017. Conditions: ref Peng et al., 2017; cited from earlier work.
In the next data set the test system is A549. Details: method as in Peng et al., 2017. As to conditions: ref Peng et al., 2017; cited from earlier work.
Another data set relates to NCI-H1975. Details: method as in Peng et al., 2017. Conditions: ref Peng et al., 2017; cited from earlier work.
The test system of the next data set is HL-7702. Details: method as in Peng et al., 2017. As to conditions: ref Peng et al., 2017; cited from earlier work.
The subject of a further data set is MDCK. On the set-up: method as in Peng et al., 2017. Conditions: ref Peng et al., 2017; cited from earlier work.
Data set [7] has as its system lung cancer cell lines (NCI-H460, A549, and NCI-H1975). On the set-up: method as in Peng et al., 2017. As to conditions: ref Peng et al., 2017, read-out: IC50 values against the tested lung cancer cell lines; cited from earlier work.

The term IC50 denotes the concentration that inhibits the measured activity by half. What is called inhibition is the percentage by which the read-out fell short of the control. One may read the melting point as the temperature of the solid-liquid transition.

“Also recorded” adds a separate entry of the source.

Regarding `O=c1[nH]cc(F)c(=O)[nH]1` [5-FU, 5-Fluorouracil, reference compound], the IC50 in data set [1] (SGC-7901, Table 1, MTT) was determined as 71.1 ± 2.65 µM; in data set [1] (SGC-7901, Table 3, MTT) it was 87.7 ± 11 µM; in data set [2] (A875, Table 1, MTT) it was 82.4 ± 23.7 µM; in data set [2] (A875, Table 3, MTT), 101 ± 7.14 µM; in data set [3] (HepG2, Table 1, MTT), 88.1 ± 17.2 µM; in data set [3] (HepG2, Table 3, MTT) it was 91.8 ± 16.1 µM. In addition, the IC50 amounted to 153 ± 11 µM in data set [4] (Table 1) and 99 ± 16.4 µM in data set [4] (Table 3). Further, the inhibition at 100 µM in data set [1] was 56.8 ± 2.2%; in data set [2] it was 53.2 ± 4.5%; in [3], 59 ± 3.5%; in data set [5], 60.3 ± 3.9%. In data set [6] (SGC-7901, A875, HepG2, MARC145), the “dose-response analysis of cell growth inhibition, in words” value is on record as “significant concentration dependence”. For the same compound, in the data set with A875 cells, the “release of LDH, in words” value is recorded as “significantly increased”.

For the compound `Cc1cc(Cl)cc(C(N)=O)c1NC(=O)c1ccccc1Nc1cccc(C(F)(F)F)c1` [A1], the 50% inhibitory concentration (IC50) in [1] (SGC-7901, Table 1, MTT) was 52.8 ± 6.59 µM; in [2] (A875, Table 1, MTT), 56.9 ± 7.54 µM; in data set [3] (HepG2, Table 1, MTT) it was greater than 89 µM; in [4] (Table 1), greater than 89 µM; with NCI-H460 it was greater than 80 µM; with A549, greater than 80 µM. Also, the concentration for half-maximal inhibition (IC50) (in the data set with NCI-H1975; with HL-7702; with MDCK; in data set [7]) was greater than 80 µM throughout.

Regarding `CNC(=O)c1cc(Cl)cc(C)c1NC(=O)c1ccccc1Nc1cccc(C(F)(F)F)c1` [A2], the IC50 is 8.5 ± 2.26 µM in data set [1] (SGC-7901, Table 1, MTT); 7.59 ± 1.82 µM in data set [2] (A875, Table 1, MTT); 12.4 ± 0.39 µM in data set [3] (HepG2, Table 1, MTT); 8.13 ± 2.49 µM in data set [4] (Table 1); 7.59 to 12.4 µM in [6] (SGC-7901, A875, HepG2, MARC145, read-out: IC50 values, span over the tested cell lines); 14.8 ± 0.49 µM in the data set on NCI-H460. In addition, the concentration for half-maximal inhibition (IC50) with A549 is 14.7 ± 1.86 µM; in the data set on NCI-H1975, 23.4 ± 2.21 µM; in the data set on HL-7702, 46.4 ± 3.87 µM; in the data set on MDCK it was 46 ± 7.77 µM.

Consider `O=C(Nc1cccc(C(F)(F)F)c1)c1ccccc1Nc1cccc(C(F)(F)F)c1` [C5, N-(3-(Trifluoromethyl)phenyl)-2-((3-(trifluoromethyl)phenyl)amino)benzamide], for which the melting point lay within 75 to 76 °C. In addition, in data set [1] (SGC-7901, Table 3, MTT), the IC50 was determined as 6.39 ± 1.53 µM. Further, the inhibition at 100 µM in [1] is 89.6 ± 5.4%. 8.54 ± 2.17 µM corresponded to half-maximal inhibition in [2] (A875, Table 3, MTT) (IC50). Further, the inhibition at 100 µM in data set [2] came to 93.7 ± 3.2%. Besides, the IC50 in data set [3] (HepG2, Table 3, MTT) was 10.1 ± 0.8 µM. In addition, in data set [3], the inhibition at 100 µM worked out at 88.9 ± 1.9%. The IC50 in data set [4] (Table 3) was found to be 9.57 ± 2.15 µM. The inhibition at 100 µM in [5] was 92.3 ± 4.1%. For the same compound, in data set [6], the “cytotoxic effect / inhibition activity in words” value was “good cytotoxic effect; also recorded: higher inhibition activities compared to the control 5-FU” and the “inhibition activity in preliminary screening, in words” value is “good inhibition activity”. In data set [6] (SGC-7901, A875, HepG2, MARC145), the “dose-response analysis of cell growth inhibition, in words” value is “significant concentration dependence”.

`O=C(Nc1ccc(C(F)(F)F)cc1)c1ccccc1Nc1cccc(C(F)(F)F)c1` [C7, N-(4-(Trifluoromethyl)phenyl)-2-((3-(trifluoromethyl)phenyl)amino)benzamide] returned a melting point of 102 to 103 °C. This compound returned an IC50 in [1] (SGC-7901, Table 3, MTT) of 8.91 ± 2.15 µM. In addition, in [1], the inhibition at 100 µM stood at 87 ± 2.4%. Also, the IC50 in data set [2] (A875, Table 3, MTT) came out at 13 ± 3.39 µM. The inhibition at 100 µM in [2] was found to be 92.6 ± 4.9%. Further, it took 10.4 ± 2.17 µM to reach half-maximal inhibition in data set [3] (HepG2, Table 3, MTT) (IC50). Further, in [3], the inhibition at 100 µM was determined as 88.5 ± 3.3%. In addition, it took 11.9 ± 1.37 µM to reach half-maximal inhibition in data set [4] (Table 3) (IC50). Further, the inhibition at 100 µM in [5] was 76.1 ± 3.5%. Further, in data set [6], the “cytotoxic effect / inhibition activity in words” value is recorded as “good cytotoxic effect; also recorded: higher inhibition activities compared to the control 5-FU” and the “inhibition activity in preliminary screening, in words” value is “good inhibition activity”. For the same compound, in [6] (SGC-7901, A875, HepG2, MARC145), the “dose-response analysis of cell growth inhibition, in words” value was “significant concentration dependence”.

The compound `O=C(Nc1ccccn1)c1ccccc1Nc1cccc(C(F)(F)F)c1` [C9, N-(Pyridin-2-yl)-2-((3-(trifluoromethyl)phenyl)amino)benzamide] came in with a melting point of 65 to 66 °C. Besides, inhibition in data set [1] (SGC-7901, Table 3, MTT) was half-maximal at 42 ± 7.95 µM (IC50). Besides, the inhibition at 100 µM in data set [1] was found to be 80.5 ± 2.5%. The compound also yielded an IC50 in data set [2] (A875, Table 3, MTT) greater than 112 µM. Further, the inhibition at 100 µM in [2] is 30.3 ± 4.1%. The compound also yielded an IC50 in data set [3] (HepG2, Table 3, MTT) of 64.2 ± 3.89 µM. In [3], the inhibition at 100 µM is 75 ± 2.7%. Further, the IC50 in data set [4] (Table 3) is 64.7 ± 3.02 µM. In addition, in data set [5], the inhibition at 100 µM came to 56.5 ± 3.3%.

`O=C(Nc1ccnc(Cl)c1)c1ccccc1Nc1cccc(C(F)(F)F)c1` [C10, N-(2-Chloropyridin-4-yl)-2-((3-(trifluoromethyl)phenyl)amino)benzamide] showed a melting point of 97 to 98 °C. In addition, the IC50 in data set [1] (SGC-7901, Table 3, MTT) came out at 8.31 ± 2.94 µM. For the same compound, in data set [1], the inhibition at 100 µM was found to be 86.8 ± 3.2%. The compound further showed a half-inhibitory concentration (IC50) in [2] (A875, Table 3, MTT) of 26.3 ± 7.39 µM. In addition, the inhibition at 100 µM in data set [2] was 90.1 ± 5.4%. The compound further had an IC50 in data set [3] (HepG2, Table 3, MTT) of 21.9 ± 1.64 µM. The inhibition at 100 µM in [3] came to 87.2 ± 4.1%. Also, in data set [4] (Table 3), the IC50 amounted to 22.7 ± 5.93 µM. Besides, the inhibition at 100 µM in data set [5] stood at 80.3 ± 4.6%. Further, in data set [6], the “cytotoxic effect / inhibition activity in words” value is given as “higher inhibition activities compared to the control 5-FU” and the “inhibition activity in preliminary screening, in words” value was “good inhibition activity”.
